Assay results: PubChem BioAssay (NCI)
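Dose response: 5 concentrations. Exposure: 48 h. Format: 96-well plates. Endpoint: linear interpolation; highest concentration if not reached. At the TGI there is no net growth.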

Key:
Assay in all cases: growth of human tumour cells (NCI), 48 h
786-0 renal = system: 786-0 renal
A498 renal = system: A498 renal
A549 NSCLC = system: A549 NSCLC
ACHN renal = system: ACHN renal
CAKI-1 renal = system: CAKI-1 renal
CCRF-CEM leukemia = system: CCRF-CEM leukemia
COLO 205 colon = system: COLO 205 colon
DLD-1 colon = system: DLD-1 colon
DMS 114 small cell lung = system: DMS 114 small cell lung
DMS 273 small cell lung = system: DMS 273 small cell lung
EKVX NSCLC = system: EKVX NSCLC
HCC-2998 colon = system: HCC-2998 colon
HCT-116 colon = system: HCT-116 colon
HCT-15 colon = system: HCT-15 colon
HL-60(TB) leukemia = system: HL-60(TB) leukemia
HOP-18 NSCLC = system: HOP-18 NSCLC
HOP-62 NSCLC = system: HOP-62 NSCLC
HOP-92 NSCLC = system: HOP-92 NSCLC
HT29 colon = system: HT29 colon
IGROV1 ovarian = system: IGROV1 ovarian
K-562 leukemia = system: K-562 leukemia
KM12 colon = system: KM12 colon
KM20L2 colon = system: KM20L2 colon
LOX IMVI melanoma = system: LOX IMVI melanoma
LXFL 529 NSCLC = system: LXFL 529 NSCLC
M14 melanoma = system: M14 melanoma
M19-MEL melanoma = system: M19-MEL melanoma
MALME-3M melanoma = system: MALME-3M melanoma
MOLT-4 leukemia = system: MOLT-4 leukemia
NCI-H226 lung = system: NCI-H226 lung
NCI-H23 lung = system: NCI-H23 lung
NCI-H460 lung = system: NCI-H460 lung
NCI-H522 lung = system: NCI-H522 lung
OVCAR-3 ovarian = system: OVCAR-3 ovarian
OVCAR-4 ovarian = system: OVCAR-4 ovarian
OVCAR-5 ovarian = system: OVCAR-5 ovarian
OVCAR-8 ovarian = system: OVCAR-8 ovarian
RPMI-8226 leukemia = system: RPMI-8226 leukemia
SF-268 CNS = system: SF-268 CNS
SF-295 CNS = system: SF-295 CNS
SF-539 CNS = system: SF-539 CNS
SK-MEL-2 melanoma = system: SK-MEL-2 melanoma
SK-MEL-28 melanoma = system: SK-MEL-28 melanoma
SK-MEL-5 melanoma = system: SK-MEL-5 melanoma
SK-OV-3 ovarian = system: SK-OV-3 ovarian
SN12C renal = system: SN12C renal
SNB-19 CNS = system: SNB-19 CNS
SNB-75 CNS = system: SNB-75 CNS
SNB-78 CNS = system: SNB-78 CNS
SW-620 colon = system: SW-620 colon
TK-10 renal = system: TK-10 renal
U251 CNS = system: U251 CNS
UACC-257 melanoma = system: UACC-257 melanoma
UACC-62 melanoma = system: UACC-62 melanoma
UO-31 renal = system: UO-31 renal
XF 498 CNS = system: XF 498 CNS

`COc1ccc(C23c4ccc(OC)cc4CC2(c2ccc([N+](=O)[O-])cc2)Cc2cc(OC)ccc23)cc1` (stereo unspecified) showed a TGI (786-0 renal) greater than 100 µM, a TGI (A498 renal) greater than 100 µM and a TGI (A549 NSCLC) greater than 100 µM. It also gave a TGI (ACHN renal) greater than 100 µM, a TGI (CAKI-1 renal) greater than 100 µM and a TGI (CCRF-CEM leukemia) greater than 100 µM. The TGI (COLO 205 colon) was greater than 52.1 µM, the TGI (DLD-1 colon) was greater than 100 µM and the TGI (DMS 114 small cell lung) was greater than 100 µM. It also gave a TGI (DMS 273 small cell lung) greater than 100 µM, a TGI (EKVX NSCLC) greater than 37.9 µM and a TGI (HCC-2998 colon) greater than 73 µM. The TGI (HCT-116 colon) was greater than 100 µM, the TGI (HCT-15 colon) was greater than 100 µM and the TGI (HL-60(TB) leukemia) was greater than 100 µM. For the same molecule, the TGI (HOP-18 NSCLC) was 30.8 µM, the TGI (HOP-62 NSCLC) was greater than 88 µM and the TGI (HOP-92 NSCLC) was greater than 44.6 µM. It also gave a TGI (HT29 colon) greater than 100 µM, a TGI (IGROV1 ovarian) greater than 81.6 µM and a TGI (K-562 leukemia) greater than 100 µM. For the same molecule, the TGI (KM12 colon) was greater than 100 µM, the TGI (KM20L2 colon) was greater than 44.9 µM and the TGI (LOX IMVI melanoma) was greater than 100 µM. It also gave a TGI (LXFL 529 NSCLC) greater than 100 µM, a TGI (M14 melanoma) greater than 100 µM and a TGI (M19-MEL melanoma) greater than 88.2 µM. The TGI (MALME-3M melanoma) was greater than 68.4 µM, the TGI (MOLT-4 leukemia) was greater than 69.2 µM and the TGI (NCI-H226 lung) was greater than 100 µM. It also gave a TGI (NCI-H23 lung) greater than 79.3 µM, a TGI (NCI-H460 lung) greater than 100 µM and a TGI (NCI-H522 lung) greater than 100 µM. The TGI (OVCAR-3 ovarian) was greater than 100 µM, the TGI (OVCAR-4 ovarian) was greater than 100 µM and the TGI (OVCAR-5 ovarian) was greater than 85.4 µM. It also gave a TGI (OVCAR-8 ovarian) greater than 100 µM, a TGI (RPMI-8226 leukemia) greater than 100 µM and a TGI (SF-268 CNS) greater than 56.9 µM. The TGI (SF-295 CNS) was greater than 100 µM, the TGI (SF-539 CNS) was greater than 74.5 µM and the TGI (SK-MEL-2 melanoma) was greater than 100 µM. It also gave a TGI (SK-MEL-28 melanoma) greater than 55.1 µM, a TGI (SK-MEL-5 melanoma) greater than 40.2 µM and a TGI (SK-OV-3 ovarian) greater than 100 µM. The TGI (SN12C renal) was greater than 100 µM, the TGI (SNB-19 CNS) was greater than 100 µM and the TGI (SNB-75 CNS) was greater than 100 µM. The TGI (SNB-78 CNS) was greater than 100 µM, the TGI (SW-620 colon) was greater than 100 µM and the TGI (TK-10 renal) was greater than 100 µM. It also gave a TGI (U251 CNS) greater than 100 µM, a TGI (UACC-257 melanoma) greater than 100 µM and a TGI (UACC-62 melanoma) greater than 41.7 µM. The TGI (UO-31 renal) was greater than 77.4 µM and the TGI (XF 498 CNS) was greater than 100 µM.
